Experimental data taken from the SangsterLogP compilation.

In order of rising logP:
1. Cn1cnc([N+](=O)[O-])c1Sc1nc(=O)[nH]c2ncn(C)c12  1.12
2. Cn1cnc([N+](=O)[O-])c1Sc1nc(=S)[nH]c2ncn(C)c12  1.19
3. CN1C=NC([N+](=O)[O-])C1Sc1nc2ncn(C)c2c(=O)[nH]1 (configuration not stated)  1.21
4. Cn1cnc([N+](=O)[O-])c1Sc1nc2ncn(C)c2c(=S)[nH]1  1.26
5. COc1nc(Sc2c([N+](=O)[O-])ncn2C)c2c(ncn2C)n1  1.45
6. Cn1cnc([N+](=O)[O-])c1Sc1nc(Cl)nc2ncn(C)c12  1.5
7. CSc1nc(Sc2c([N+](=O)[O-])ncn2C)c2c(ncn2C)n1  1.6
8. Cn1cnc([N+](=O)[O-])c1Sc1nc(Sc2c([N+](=O)[O-])ncn2C)c2c(ncn2C)n1  1.68
9. C=CCOc1nc(Sc2c([N+](=O)[O-])ncn2C)c2c(ncn2C)n1  2.02
10. C=CCSc1nc(Sc2c([N+](=O)[O-])ncn2C)c2c(ncn2C)n1  2.43
11. Cn1cnc([N+](=O)[O-])c1Sc1nc(OCc2ccccc2)nc2ncn(C)c12  2.67
12. Cn1cnc([N+](=O)[O-])c1Sc1nc(SCc2ccccc2)nc2ncn(C)c12  2.91
